Results taken from publication PMC5844530, “Fosmetpantotenate (RE-024), a phosphopantothenate replacement therapy for pantothenate kinase-associated neurodegeneration: Mechanism of action and efficacy in nonclinical models” (PLoS ONE, 2018).
Where “and” joins values, the source holds several entries; their conditions need not be identical. Identical values can stand only once. Values belong to the compound of their own block, whether it stands above or below them.

Legend:
[1] = Pharmacokinetics in whole blood, CD-1 mice; settings: for % Parent AUCAll: CD1 mouse, metabolite AUCall/Parent AUCall x 100; for Whole Blood Conc. of compound 3: CD-1 mice; for concentration at 2 h / concentration at 8 h / concentration at 0.5 h: male, CD-1, mouse, whole blood, po, Whole Blood Conc. of compound 3, CD-1 mice
[2] = Pharmacokinetics in whole blood, cynomolgus monkeys; settings: for % Parent AUCAll: Cynomolgus monkey, 300 mg/kg PO, metabolite AUCall/Parent AUCall x 100
Protocol: The whole blood samples (0.5 mL) were collected into syringes that were prefilled with 2.5 mL of ice-cold 0.1% formic acid in acetonitrile. The volume ratio of the whole blood to 0.1% formic acid in acetonitrile was 1/5 (v/v). Samples were frozen (-70°C) until analyzed by LC-MS/MS.
Standard curves and quality control (QC) samples were prepared fresh on the day of analysis by serial dilution of the standard mixture in quenched whole blood (1 part of blood to 5 parts of 0.1% formic acid in acetonitrile) and centrifuged. […] The frozen study samples were thawed in an ice/water bath and centrifuged. Supernatant (50 μL) from standards, QC samples, and study samples was transferred to a 96-well plate and dried completely under nitrogen. The dried residues were reconstituted with 100 μL of 0.1% formic acid in water containing internal standard (5 ng/mL of ^15N/^13C3-RE-024-02) and analyzed by LC-MS/MS.
LC-MS/MS analysis for blood pharmacokinetic samples: Samples were analyzed using an Agilent 1100 binary pump (Agilent Technologies, Santa Clara, CA, USA), connected to an AB Sciex API 6500 mass spectrometer (SCIEX, Framingham, MA, USA). An electrospray ionization source was used, scanning in the positive mode. […] The chromatography column was a Varian Metasil AQ 120–5 C18 column, 5 μm, 50 x 2.00 mm (Part No. A0530050X020) at ambient temperature, with a 0.5 mL/min flow rate and a 20 μL injection volume. Mobile phase (A) consisted of 0.1% formic acid in water; while mobile phase (B) consisted of 0.1% formic acid in acetonitrile:water (9:1, v/v).
Quantitation of in vivo samples: Peak areas were integrated using Analyst software (AB Sciex, Concord, Ontario, Canada). […] Calibration standards (at a minimum 7 per curve) were fit by linear regression with (1/x^2) weighting. QC samples were used (triplicate) at 3 concentrations for all tandem mass spectrometry (MS/MS) runs.
Pharmacokinetic calculations: PK analysis was performed using Phoenix WinNonlin®, Build 6.3.0.395 (Certara, Princeton, NJ, USA) using a non-compartmental model (PO dose = model 200 for extravascular dosing). […] Post-dose concentrations below the limit of quantitation (BLQ) were omitted from calculation.

[3] = Pharmacokinetics in whole blood, Sprague-Dawley rats; settings: Sprague-Dawley rat, metabolite AUCall/Parent AUCall x 100

- % Parent AUCAll ([1]; 100 mg/kg PO): 8,900%
- % Parent AUCAll ([1]; 300 mg/kg PO): 18,900%
- % Parent AUCAll ([1]; 700 mg/kg PO): 1,990%
- Whole Blood Conc. of compound 3 ([1]; single 100 mg/kg RE-024-02 PO, 4 hr, LLOQ 6 ng/mL): BQL
- Whole Blood Conc. of compound 3 ([1]; single 100 mg/kg RE-024-02 PO, 4 hr, LLOQ 21.3 nM): BQL
- Whole Blood Conc. of compound 3 ([1]; single 700 mg/kg RE-024-02 PO, 0.5 hr, LLOQ 6 ng/mL, 700 mg/kg): 126 ng/mL and 156 ng/mL and 189 ng/mL
- Whole Blood Conc. of compound 3 ([1]; single 700 mg/kg RE-024-02 PO, 0.5 hr, LLOQ 21.3 nM, 700 mg/kg): 448.1 nM and 554.8 nM and 672.1 nM
- Whole Blood Conc. of compound 3 ([1]; single 700 mg/kg RE-024-02 PO, 2 hr, LLOQ 6 ng/mL, 700 mg/kg): 67.2 ng/mL and 69.6 ng/mL and 72 ng/mL
- Whole Blood Conc. of compound 3 ([1]; single 700 mg/kg RE-024-02 PO, 2 hr, LLOQ 21.3 nM, 700 mg/kg): 239 nM and 247.5 nM and 256 nM
- concentration at 2 h ([1]; 100 mg/kg, single 100 mg/kg RE-024-02 PO, 2 hr, LLOQ 6 ng/mL): 6.7 ng/mL
- concentration at 2 h ([1]; 100 mg/kg, single 100 mg/kg RE-024-02 PO, 2 hr, LLOQ 21.3 nM): 23.7 nM
- concentration at 8 h ([1]; 100 mg/kg, single 100 mg/kg RE-024-02 PO, LLOQ 6 ng/mL): 6.1 ng/mL
- concentration at 8 h ([1]; 100 mg/kg, single 100 mg/kg RE-024-02 PO, LLOQ 21.3 nM): 21.6 nM
- concentration at 8 h ([1]; 300 mg/kg, single 300 mg/kg RE-024-02 PO, LLOQ 6 ng/mL): 7.6 ng/mL
- concentration at 8 h ([1]; 300 mg/kg, single 300 mg/kg RE-024-02 PO, LLOQ 21.3 nM): 26.9 nM
- concentration at 0.5 h ([1]; 700 mg/kg, single 700 mg/kg RE-024-02 PO, 0.5 hr, LLOQ 6 ng/mL): 162 ng/mL
- concentration at 0.5 h ([1]; 700 mg/kg, single 700 mg/kg RE-024-02 PO, 0.5 hr, LLOQ 21.3 nM): 576 nM
- concentration at 2 h ([1]; 700 mg/kg, single 700 mg/kg RE-024-02 PO, 2 hr, LLOQ 6 ng/mL): 48.2 ng/mL
- concentration at 2 h ([1]; 700 mg/kg, single 700 mg/kg RE-024-02 PO, 2 hr, LLOQ 21.3 nM): 172 nM
- % Parent AUCAll [2]: 9%
- concentration at 0.25 h ([2]; cynomolgus monkey, whole blood, po, 300 mg/kg, Concentration of compound 3 in whole blood, cynomolgus monkeys, single oral 300 mg/kg fosmetpantotenate, 0.25 hr, LLOQ 2.13 nM): 5.33 nM
- concentration at 4 h ([2]; cynomolgus monkey, whole blood, po, 300 mg/kg, Concentration of compound 3 in whole blood, cynomolgus monkeys, single oral 300 mg/kg fosmetpantotenate, 4 hr, LLOQ 2.13 nM): 432 nM
- concentration at 8 h ([2]; cynomolgus monkey, whole blood, po, 300 mg/kg, Concentration of compound 3 in whole blood, cynomolgus monkeys, single oral 300 mg/kg fosmetpantotenate, 8 hr, LLOQ 2.13 nM): 619 nM
- Concentration of compound 3 in whole blood ([2]; cynomolgus monkeys, single oral 300 mg/kg fosmetpantotenate, 0.25 hr, LLOQ 2.13 nM, 300 mg/kg): 3.41 nM
- Concentration of compound 3 in whole blood ([2]; cynomolgus monkeys, single oral 300 mg/kg fosmetpantotenate, 4 hr, LLOQ 2.13 nM, 300 mg/kg): 654.2 nM
- Concentration of compound 3 in whole blood ([2]; cynomolgus monkeys, single oral 300 mg/kg fosmetpantotenate, 8 hr, LLOQ 2.13 nM, 300 mg/kg): 508.25 nM
- % Parent AUCAll ([3]; 300 mg/kg PO): 4,130%
- % Parent AUCAll ([3]; 700 mg/kg PO): 209%
SMILES: CC1(C)COP(=O)(O)O[C@H]1C(=O)NCCC(=O)O [Compound 3]

SMILES: COC(=O)[C@H](C)NP(=O)(OCC(C)(C)[C@@H](O)C(=O)NCCC(=O)O)Oc1ccccc1 (stereo partly shown) [Compound 4]
- % Parent AUCAll ([1]; 100 mg/kg PO): 3,180%
- % Parent AUCAll ([1]; 300 mg/kg PO): 12,600%
- % Parent AUCAll ([1]; 700 mg/kg PO): 10,500%
- % Parent AUCAll [2]: 301%
- concentration at 0.083 h ([2]; cynomolgus monkey, in vivo, po, 300 mg/kg, Concentration of compound 4 in whole blood, cynomolgus monkeys, single oral 300 mg/kg fosmetpantotenate, 0.083 hr, sum of diastereomers, LLOQ 1.30 nM): 13.2 nM
- concentration at 2 h ([2]; cynomolgus monkey, in vivo, po, 300 mg/kg, Concentration of compound 4 in whole blood, cynomolgus monkeys, single oral 300 mg/kg fosmetpantotenate, 2 hr, sum of diastereomers, LLOQ 1.30 nM): 5070 nM
- concentration at 4 h ([2]; cynomolgus monkey, in vivo, po, 300 mg/kg, Concentration of compound 4 in whole blood, cynomolgus monkeys, single oral 300 mg/kg fosmetpantotenate, 4 hr, sum of diastereomers, LLOQ 1.30 nM): 665 nM
- Concentration of compound 4 in whole blood ([2]; cynomolgus monkeys, single oral 300 mg/kg fosmetpantotenate, 0.083 hr, sum of diastereomers, LLOQ 1.30 nM, 300 mg/kg): 8.08 nM
- Concentration of compound 4 in whole blood ([2]; cynomolgus monkeys, single oral 300 mg/kg fosmetpantotenate, 2 hr, sum of diastereomers, LLOQ 1.30 nM, 300 mg/kg): 5694.67 nM
- Concentration of compound 4 in whole blood ([2]; cynomolgus monkeys, single oral 300 mg/kg fosmetpantotenate, 4 hr, sum of diastereomers, LLOQ 1.30 nM, 300 mg/kg): 600.1 nM
- % Parent AUCAll ([3]; 300 mg/kg PO): 2,820%
- % Parent AUCAll ([3]; 700 mg/kg PO): 849%
